This is an account of results in patent publication US20080220072A1, “BIOLOGIC MODULATIONS WITH NANOPARTICLES” (priority 2002, published 2008).

Data set [1] has as its system hormone-insensitive PC3 cells. Kind of data set: Growth inhibition in prostate carcinoma cells. The format is cell-based. The following applies: PC3, 5,000 cells per untreated well. On the procedure:
(§1) In these studies, cells were seeded at 5,000 cells per untreated well.

The subject of data set [2] is hormone-sensitive Alva-41 prostate carcinoma cells. Kind of data set: Growth inhibition in prostate carcinoma cells. The format is cell-based, human. The following applies: Alva-41, 5,000 cells per untreated well. On the procedure:
as §1

A further data set has as its system SCC-15. Kind of data set: Growth inhibition in chemoresistant head neck cancer cell line. The format is cell-based, human. On the procedure:
Antisense molecules were tested for growth inhibition against the chemoresistant head neck cancer cell line SCC-15 at 10,000 cells per well, the cells being pretreated with tenascin, with results as shown in FIG. 5B-C. Referring to FIG. 5B, PO refers to phosphodiester antisense referred to as asCK2 in Table 9 (SEQ ID NO 1), PO sense refers to phosphodiester sense sequence complementary to asCK2, siRNA refers to a duplex RNA sequence that is screened from the asCk2 sequence, 2OME RNA refers to a nucleic acid of the sequence SEQ ID NO 1 that is all RNA and is al methylated, and PO RNA refers to a proprietary chimeric molecule having the sequence of SEQ ID NO 1 but being a mixture of RNA and DNA and having phosphodiester and 2OME backbone. […] Because of it's capacity for being metabolized, the PO RNA construct within the context of a colloidal formulation will offer advantages in safety for delivery of cytotoxic constructs.
Referring to FIG. 5C, cisplatin TN/x s-50 refers to nanoparticles comprising cisplatin and a 1:1 w/w ratio of tenascin:dextran. Tn s-50 refers to nanoparticles comprising cisplatin and tenascin, asCK2 TN s-50 refers to nanoparticles comprising tenascin and asCK2 antisense of sequence SEQ ID NO 1, and free cisplatin refers to cisplatin added to the cell medium.

Data set [3] relates to metastatic variant of Alva-41 prostate carcinoma cells. Put plainly: Growth inhibition by nanoencapsulated cisplatin. The format is cell-based, human. The following applies: 5,000 cells per well, 72 hours. On the procedure:
Cisplatin was nanoencapsulated into the various candidate tumor binding agents as described previously and nanoparticles were compared for growth inhibition in a metastatic variant of Alva-41 prostate carcinoma cells and Ca-9-22. Formulas were tested in duplicate in two separate experiments. Results are illustrated for the prostate cell line in FIG. 5D. Referring to FIG. 5D, PEX-MMP-1/Cisplatin refers to s50 nanoparticles comprising cisplatin and the Recombinant Pex binding domain of membrane-associated Matrix Metalloproteinase-1 (see Bello et. al, Cancer Research (2001) 61: 8730-36); Tenascin/Cisplatin refers to s50 nanoparticles having tenascin and cisplatin, FN-PHSCN/Cisplatin refers to nanoparticles comprising the FN-PHSCN fragment and cisplatin, Osteonecetin/asCK2 refers to s50 nanoparticles comprising osteonectin and the asCK2 antisense sequence, galectin-3/cisplatin refers to s50 nanoparticles comprising galectin-3 and cisplatin, hyaluronan/cisplatin refers to s50 nanoparticles comprising hyaluronan and cisplatin, and naked cisplatin refers to the addition of free cisplatin to the cell medium. In these experiments cells were plated at 5,000 per well and followed for 72 hours. […] As a comparison, based on a standard male patient, an acceptable in vitro dose of cisplatin would correspond to about 10 μg/ml or 30 μM. […]

A further data set has as its system cancer cells. Put plainly: Growth inhibition, MTT/WST assay, antisense backbones. The data set is classed as cell-based. The following applies: maximal kill, 72 hours post treatment. On the procedure:
The efficacies of various nucleic acid backbone chemistries were investigated by delivering […] to cancer cells in organ culture using a collection of nanoparticles that were less than about 50 nm in diameter. Recurrent head neck tumors are typically small (1-2 cm), but based on volumetric scaling between in vitro tumor nests and mouse studies, it is estimated that estimate that a dose of 3 5 mg will be required to locally treat a 2 cm tumor. Various nucleic acid chemistries may reduce this amount by either enhancing binding affinity between the target mRNA and the antisense, using the antisense to bind to DNA instead of RNA, or increasing nuclease resistance (and half-life). […] Biological activity was assayed as growth inhibition using the MTT/WST assay in a 96 well format. Cells were seeded at 20,000 per well, treated 18 hours later, then assayed at 72 hours post treatment. Although the cells are resistant to conventional chemotherapeutic agents, cisplatin activity is shown for reference (black line). […] Additional formats screened but not shown were a phosphodiester/2OME chimeric and the siRNA format.

pIC50: −log10 of the molar value.

In the case of “SEQ ID NO 1: GTCCCGACATGTCAGACAGG; phosphodiester antisense 20mer to CK2α translation start site (antisense GTCCCGACATGTCAGACAGG; all phosphodiester, sugars by position and methylation of C not given here)”, the pIC50 (in general, the IC50 on a negative log10 scale, so that one unit is a factor of ten) in data set [1] was 4.40; in data set [2], 4.82. On to “PO RNA: chimeric molecule with sequence of SEQ ID NO 1, mixture of RNA and DNA, phosphodiester and 2OME backbone (antisense GTCCCGACATGTCAGACAGG; RNA/DNA chimera, phosphodiester and 2'-O-methyl, chemistry not fully specified)”, for which the pIC50 with SCC-15 (SCC-15, 10,000 cells per well, pretreated with tenascin) is 5.52.

In the case of `N.N.[Cl][Pt][Cl]` [free cisplatin, cisplatin, reference compound], the “overall in vitro kill” value in the data set with SCC-15 (SCC-15, FIG. 5C) is recorded as “zero”. For the same compound, the pIC50 in data set [3] was 4.00. Regarding “2-0 methyl RNA format: nucleic acid of the sequence SEQ ID NO 1 that is all RNA and methylated, in s50 nanoparticles (GTCCCGACATGTCAGACAGG; all 2'-O-methyl, backbone and T or U not given here; formulated in s50 nanoparticles)”, the “complete kill achieved in vitro” value in the data set with cancer cells was “capacity for complete kill”.
